Experimental data as given in patent US11685739B2, “High penetration drugs and their compositions thereof for treatment of Parkinson diseases” (TECHFIELDS PHARMA CO., LTD, priority 2013, dated 2023).
Structures can show the parent of a compound that is named as a salt. Where two headings read alike, the source gives them in different places.

Settings: human, pH 7.4

Row | Compound | The cumulative amount of test compounds (1 h) [mg] | The cumulative amount of test compounds (2 h) [mg] | The cumulative amount of test compounds (4 h) [mg] | The cumulative amount of test compounds (8 h) [mg]
1 | CCOC(=O)[C@@H](N)Cc1ccc(OC(C)=O)c(OC(C)=O)c1.Cl [Compound-14, (S)-4-(2-amino-3-ethoxy-3-oxopropyl)-1,2-phenylene diacetate hydrochloride] | 0.60 | 1.21 | 2.44 | 4.82
2 | CCC(CC)C(=O)Oc1ccc(CCNC(=O)OC2CCC3CCCCN3C2)cc1OC(=O)C(CC)CC (stereo not drawn) [Compound-7, 4-(2-((((-octahydro-1H-quinolizin-3-yl)oxy)carbonyl)amino)ethyl)-1,2,-phenylene bis(2-ethylbutanoate) acetate] | 0.64 | 1.27 | 2.57 | 5.05
3 | CC(C)OC(=O)[C@H](Cc1ccc2c(c1)OC(=O)CC(N)C(=O)O2)NC(=O)OC(C)OC(=O)C(C)C (stereo partly drawn) [Compound-20(a), (2S)-isopropyl 3-(3-amino-2,5-dioxo-2,3,4,5-tetrahydrobenzo[b][1,4]dioxocin-8-yl)-2-(((1-(isobutyryloxy)ethoxy)carbonyl)amino)propanoate hydrobromide] | 0.42 | 0.88 | 1.75 | 3.49
4 | CC(C)OC(=O)[C@H](Cc1ccc(OC(=O)C(C)C)c(OC(=O)C(C)C)c1)NC(=O)C1CCN2CCCCC2C1.Cl (stereo partly drawn) [Compound-19, 4-((2S)-3-isopropoxy-3-2-(octahydro-1H-quinolizine-2-carboxamido)-3-oxopropyl)-1,2-phenylene bis(2-methylpropanoate) hydrochloride] | 0.48 | 0.98 | 2.02 | 4.09
5 | CCCCC(=O)Oc1ccc(C[C@H](N)C(=O)OC(C)C)cc1OC(=O)CCCC.Cl [Compound-13, (S)-4-(2-amino-3-isopropoxy-3-oxopropyl)-1,2-phenylene dipentanoate hydrochloride] | 0.52 | 1.05 | 2.10 | 4.23
6 | CC(OC(=O)NCCc1ccc2c(c1)OC(=O)C(N)CC(=O)O2)OC(=O)C(C)C (stereo not drawn) [Compound-8a, 1-(((2-(4-amino-2,5-dioxo-2,3,4,5-tetrahydrobenzo[b][1,4]dioxocin-8-yl)ethyl)carbamoyl)oxy)ethyl isobutyrate hydrofluoride] | 0.63 | 1.22 | 2.43 | 4.83
7 | CCC(CC)C(=O)Oc1ccc(CCNC(=O)C2CCNCC2)cc1OC(=O)C(CC)CC.Cl [Compound-6] | 0.63 | 1.25 | 2.53 | 5.03
8 | CC(C)OC(=O)[C@H](Cc1ccc2c(c1)OC(=O)C(N)CC(=O)O2)NC(=O)OC(C)OC(=O)C(C)C (stereo partly drawn) [Compound-20(b), (2S)-isopropyl 3-(4-amino-2,5-dioxo-2,3,4,5-tetrahydrobenzo[b][1,4]dioxocin-8-yl)-2-(((1-(isobutyryloxy)ethoxy)carbonyl)amino)propanoate hydrobromide] | 0.43 | 0.85 | 1.78 | 3.52
9 | CNCC(=O)Oc1ccc(C[C@H](NC(=O)OC(C)OC(=O)C(C)C)C(=O)OC(C)C)cc1OC(=O)c1ccccc1 (stereo partly drawn) [Compound-21(a), 5-((2S)-2-(((1-(isobutyryloxy)ethoxy)carbonyl)amino-3-isopropoxy-3-oxopropyl)-2-(2-(methylamino)acetoxy)phenyl benzoate hydrochloride] | 0.52 | 1.08 | 2.17 | 4.37
10 | CCOC(=O)NCCc1ccc(OC(=O)CNC)c(OC(=O)c2ccccc2)c1 [Compound-9b, 5-(2-((ethoxycarbonyl)amino)ethyl)-2-(2-methylamino)acetoxy)phenyl benzoate hydrochloride] | 0.62 | 1.26 | 2.48 | 4.95

Results, then the compound that gave them:

Row | The cumulative amount of test compounds (1 h) [mg] | The cumulative amount of test compounds (2 h) [mg] | The cumulative amount of test compounds (4 h) [mg] | The cumulative amount of test compounds (8 h) [mg] | Compound
11 | 0.52 | 1.03 | 2.10 | 4.19 | CC(C)OC(=O)[C@H](Cc1ccc(OC(=O)c2ccccc2)c(OC(=O)c2ccccc2)c1)NC(=O)C1CCNCC1 [Compound-18, (S)-4-(3-isopropoxy-3-oxo-2-(piperidine-4-carboxamido)propyl)-1,2-phenylene dibenzoate hydrochloride]
12 | 0.001 | 0.001 | 0.002 | 0.003 | CC(C(=O)O)c1cccc(Oc2ccccc2)c1 (stereo not drawn) [Compound-34, 2-(3-phenoxyphenyl) propionic acid, reference compound]
13 | 0.45 | 0.89 | 1.78 | 3.61 | CC(C)OC(=O)[C@H](Cc1ccc(OC(=O)c2ccccc2)c(OC(=O)c2ccccc2)c1)NC(=O)OC1CCN2CCCCC12 (stereo partly drawn) [Compound-22, 4-((2S)-3-isopropoxy-2-((((octahydroindolizin-1-yl)oxy)carbonyl)amino)-3-oxopropyl)-1,2-phenylene dibenzoate acetate]
14 | 1.17 | 2.33 | 4.65 | 9.31 | CC(C(=O)SCCN(C)C)c1cccc(Oc2ccccc2)c1.Cl (stereo not drawn) [Compound-26]
15 | 1.15 | 2.31 | 4.58 | 9.22 | CC(C(=O)OCCN(C)C)c1cccc(Oc2ccccc2)c1.Cl (stereo not drawn) [Compound-25, 2-(dimethylamino)ethyl 2-(3-phenoxyphenyl) propionate.hydrochloride]
16 | 0.59 | 1.21 | 2.45 | 4.93 | Cl.NC(Cc1ccccc1)C(=O)NCCc1ccc(OC(=O)c2ccccc2)c(OC(=O)c2ccccc2)c1 (stereo not drawn) [Compound-4, 4-(2-(2-amino-3-phenylpropanamido)ethyl)-1,2,-phenylene dibenzoate hydrochloride]
17 | 0.001 | 0.001 | 0.002 | 0.003 | CC(=O)Oc1ccccc1C(=O)O [Compound-32, acetylsalicylic acid, reference compound]
18 | 0.67 | 1.33 | 2.67 | 5.25 | CNCC(=O)NCCc1ccc(OC(=O)c2ccccc2)c(OC(=O)c2ccccc2)c1.Cl [Compound-1, 4-(2-(2-(methylamino)acetamido)ethyl)-1,2,-phenylene dibenzoate hydrochloride]
19 | 0.58 | 1.15 | 2.33 | 4.71 | CCC(CC)OC(=O)[C@H](Cc1ccc(OC(=O)c2ccccc2)c(OC(=O)c2ccccc2)c1)NC(=O)C1CCCN1 (stereo partly drawn) [Compound-17, 4-((2S)-3-oxo-3-(pentan-3-yloxy)-2-(pyrrolidine-2-carboxamido)propyl)-1,2-phenylene dibenzoate hydrofluoride]
20 | 0.85 | 1.69 | 3.38 | 6.85 | CCN(CC)CCOC(=O)c1ccccc1Nc1c(Cl)ccc(C)c1Cl [Compound-23, 2-(diethylamino)ethyl 2-[(2,6-dichloro-3-methylphenyl)amino]benzoate.acetate]
21 | 1.15 | 2.28 | 4.57 | 9.19 | CCN(CC)CCOC(=O)C(C)c1ccc(CC(C)C)cc1.Cl (stereo not drawn) [Compound-28, 2-(diethylamino)ethyl 2-(4-isobutylphenyl)propionate hydrochloride]
22 | 0.61 | 1.23 | 2.49 | 5.01 | Br.CNCC(=O)OC(C)OC(=O)NCCc1ccc(OC(=O)c2ccccc2)c(OC(=O)c2ccccc2)c1 (stereo not drawn) [Compound-3, 4-(6-methyl-4,8-dioxo-5,7-dioxa-2,9-diazadecan-11-yl)-1,2,-phenylene dibenzoate hydrobromide]
23 | 0.56 | 1.13 | 2.23 | 4.49 | CC(C)OC(=O)[C@H](Cc1ccc(OC(=O)c2ccccc2)c(OC(=O)c2ccccc2)c1)NC(=O)CN.Cl [Compound-16]
24 | 0.87 | 1.79 | 3.53 | 7.15 | CCN(CC)CCOC(=O)CC1=C(C)/C(=C/c2ccc([S+](C)[O-])cc2)c2ccc(F)cc21 (stereo not drawn) [Compound-24]
